“And” between values parts separate entries of the source, which are not always exact repeats. Equal values may be shown once.
Columns and labels:
[1] = system: HIV in PBMCs from HIV-infected donors; human Interferon α/β receptor chain 2 blocked; experiment: HIV activation with and without IFNα/β receptor block (Example 212); assay type: cell-based; settings: Example 49 10 nM to 10 uM with anti-IFNα/β receptor chain 2 mAb MMHAR-2 at 1:500; day 4; 4 donors; p<0.05
Protocol: PBMCs from HIV-infected donors on suppressive cART were isolated, as before, and treated with the compound of Example 49 (GS-9620) at the doses indicated (10 nM to 10 uM) in the presence or absence of a mouse monoclonal antibody (clone MMHAR-2) against the human Interferon α/β receptor chain 2 (PBL Assay Science, Piscataway, N.J., Cat #21385-1) used at 1:500 dilution. At day 4 after treatment, cell-free culture supernatant was collected and HIV viral RNA was quantitated using the AmliPrep/COBAS® TaqMan® assay. Fold HIV activation in PBMCs from two HIV-infected donors treated with the compound of Example 49 alone and in combination with the anti-IFNα/β mAB (IFNAR block) is depicted in FIG. 8.

[2] = system: peripheral CD4 lymphocytes (CD3+CD4+CD8−); experiment: Peripheral lymphocyte activation, CD69 by flow cytometry: CD4 lymphocytes (Example 206); assay type: in vivo, rhesus macaque
Description: During the course of treatment with the compound of Example 4 as described in Example 204, peripheral lymphocyte activation was monitored in the groups dosed with the compound of Example 4 or the dosing vehicle of Example 201 (placebo), by measuring the expression of the early activation marker CD69 on various lymphocyte subsets by flow cytometry methodology. This methodology was used to quantify the percentage of immune cell subsets expressing the early activation marker. Standard data acquisition techniques were employed on a flow cytometer and by the use of antibodies conjugated to fluorescent molecules where the antibodies recognize rhesus macaque cell surface proteins on various immune cell subsets. In animals dosed with the compound of Example 4, whole blood samples were collected for each dose at various time points both at pre- and post-administration of compound. Total PBMCs were stained in the whole blood samples using antibodies that were chosen to be reactive to rhesus CD3, CD4, CD8, NKG2A, CD16 and CD56, each conjugated to different fluorescent probes to delineate CD3+CD4+CD8− lymphocytes, CD3+CD4−CD8+ lymphocytes and CD3-CD8+ NKG2A+CD16+ CD56+ NK cells. The flow cytometry data presented herein are from animals treated with the compound of Example 4.

proviral SIV DNA = experiment: Proviral SIV DNA in PBMCs, lymph node and colon by qPCR (Example 205); assay type: in vivo, rhesus macaques
Description: A whole blood sample, an inguinal lymph node sample, and a colon pinch biopsy sample were taken from the animals dosed with the compound of Example 4 and from the animals dosed with the vehicle of Example 201 (placebo group) in the study described in Example 204. These samples were taken prior to initiation of dosing and two weeks after the last dose; all samples were taken while animals were on cART. Total DNA was isolated from each sample using commercially available blood and tissue DNA extraction kits. Proviral SIV DNA levels were measured by quantitative PCR (qPCR) using probe-primer sets specific to the SIV gag gene and normalization for cellular input by measuring the glyceraldehyde 3-phosphate dehydrogenase (GAPDH) gene levels. […] In one of the compound treated animals (166-08), there was only a noted decrease in the proviral DNA content in the PBMCs, a minor increase in lymph node, and a minor decrease in the colon. In the vehicle-dosed placebo control animals, however, there were slight to moderate increases in two of three animals in proviral SIV DNA in the PBMC and colon samples, and relatively stable levels in lymph node samples.

CCCCOc1nc(N)c2c(n1)N(Cc1cccc(CN3CCCC3)c1)CC(=O)N2 [Example 49]
mean maximal reduction of fold HIV activation by IFNAR block [1]: 85%

CCCCOc1nc(N)c2c(n1)N(Cc1ccc(CN3CCCC3)cc1)CC(=O)N2 [Example 4]
mean maximum percent change in CD69 expression on CD4 lymphocytes ([2]; all subsequent doses): 1.7%
mean maximum percent change in CD69 expression on CD4 lymphocytes ([2]; dose 0.1 mg/kg, any time point (rise 24 to 72 hours post-dose), pre-dose range 0.5-1.7%): 1.1%
mean maximum percent change in CD69 expression on CD4 lymphocytes ([2]; dose 0.2 mg/kg, pre-dose range 0.5-2%): 1.5%
mean maximum percent change in CD69 expression on CD4 lymphocytes ([2]; first dose of 0.3 mg/kg, pre-dose range 0.6-2.5%): 2.3%
Proviral SIV DNA, PBMC, Pre (proviral SIV DNA; SIV+ rhesus on cART, prior to initiation of dosing, one line per animal): 150 copies/10^6 cells and 68 copies/10^6 cells and 160 copies/10^6 cells and 120 copies/10^6 cells
Proviral SIV DNA, PBMC, Post (proviral SIV DNA; SIV+ rhesus on cART, two weeks after the last dose, one line per animal): 100 copies/10^6 cells and 34 copies/10^6 cells and 89 copies/10^6 cells and 3 copies/10^6 cells
Proviral SIV DNA, Colon, Pre (proviral SIV DNA; colon pinch biopsy, on cART, prior to initiation of dosing, one line per animal): 230 copies/10^6 cells and 80 copies/10^6 cells and 150 copies/10^6 cells and 110 copies/10^6 cells
Proviral SIV DNA, Colon, Post (proviral SIV DNA; colon pinch biopsy, on cART, two weeks after the last dose, one line per animal): 210 copies/10^6 cells and 3 copies/10^6 cells (3×)
Proviral SIV DNA, Lymph node, Pre (proviral SIV DNA; inguinal lymph node, on cART, prior to initiation of dosing, one line per animal): 270 copies/10^6 cells and 31 copies/10^6 cells and 210 copies/10^6 cells and 130 copies/10^6 cells
Proviral SIV DNA, Lymph node, Post (proviral SIV DNA; inguinal lymph node, on cART, two weeks after the last dose, one line per animal): 280 copies/10^6 cells and 3 copies/10^6 cells (2×) and 84 copies/10^6 cells
change of proviral SIV DNA, pre- vs post-treatment, across PBMC, inguinal lymph node and colon (proviral SIV DNA; within each animal, on cART): clear decrease in proviral DNA content for three of four animals

From patent US11116774B2, “Modulators of toll-like receptors for the treatment of HIV” (Gilead Sciences, Inc., priority 2014, dated 2021)
